Test results published in patent US12018093B2, “Hemiasterlin derivatives and antibody-drug conjugates including same” (priority 2017, dated 2024).
Values joined by “and” are separate entries in the source; they are usually repeats but may differ in a detail not shown here. Equal values may be shown once. “Also recorded” adds a separate entry of the source. Read-outs that look alike come from different tables or passages of the source.

Key:
SK-BR-3 cells = assay: Cellular toxicity test (2), CellTiter-Glo, SK-BR-3; assay type: cell-based; conditions: Homo sapiens, 72 h, cultured 3 days, cell viability
Procedure: (§1) The IC50 value was calculated by the following formula: IC50(nM)=antilog(LOG10(a/b)×(e−d)/(c−d)+LOG10b) • a: concentration a of test substance • b: concentration b of test substance • c: cell viability upon adding test substance with concentration a • d: cell viability upon adding test substance with concentration b • e: intermediate value between maximum and minimum among cell viabilities upon • adding test substances with different concentrations (a and b are concentrations crossing the cell viability e, and a>b is indicated).
(§2) The cell viability at each concentration was calculated by the following formula: Cell Viability (%)=a′/b′×100 • a′: mean value of luminescence amount of wells to which test substance was added (n=6) • b′: mean value of luminescence amount of wells to which test substance was not added (n=6) • (n represents the number of evaluations performed per test substance concentration).
SK-BR-3 cells (ATCC), which are a human breast cancer cell line, were cultured in McCoy's 5A (GIBCO) containing 10% fetal bovine serum (MP Biomedicals) (hereinafter, referred to as the “culture medium” in this test). SK-BR-3 cells were prepared to be 2×10^6 cells/mL in the culture medium, added to a 96 well microplate for cell culturing in an amount of 50 μL for each well, and cultured at 37 degree under 5% CO2 overnight, and then, compounds of Examples or hemiasterlin 4 times diluted with the culture medium in 8 stages were added to the microplate in an amount of 50 μL for each well. To wells to which the test substance was not added, the culture medium was added in an amount of 50 μL for each well. These were cultured at 37 degree under 5% CO2 for 3 days. After culturing, the microplate was taken out from the incubator, and was left at rest at room temperature for 10 minutes. 50 μL of CellTiter-Glo Luminescent Cell Viability Assay (Promega) was added, and the resultant mixture was stirred. This mixture was incubated at a dark place for 20 minutes. Using a microplate luminometer, luminescence at each well was measured, thereby calculating the cell viability for each concentration of the test substance. The IC50 value was calculated in accordance with the method described in Test Example 3.

Karpas-299 cells = assay: Cellular toxicity test (1), CellTiter-Glo, Karpas-299; assay type: cell-based; conditions: Homo sapiens, 96 h, cultured 4 days, cell viability
Procedure: (§3) SU-DHL-1 cells (American Type Culture Collection, hereinafter, ATCC) and Karpas-299 cells (European Collection of Authenticated Cell Cultures, hereinafter, ECACC), which are human lymphoma cell lines, were cultured in RPMI 1640 (GIBCO) containing 10% fetal bovine serum (MP Biomedicals) (hereinafter, referred to as the “culture medium” in this test). SU-DHL-1 cells and Karpas-299 cells were prepared to be 2×10^6 cells/mL in the culture medium, and were added to a 96 well microplate for cell culturing in an amount of 50 μL for each well. Compounds of Examples or hemiasterlin 4 times diluted with the culture medium in 8 stages were added to the microplate in an amount of 50 μL for each well. To wells to which the test substance was not added, the culture medium was added in an amount of 50 μL for each well. These were cultured at 37 degree under 5% CO2 for 4 days. After culturing, the microplate was taken out from the incubator, and was left at rest at room temperature for 10 minutes. To each well, 50 μL of CellTiter-Glo Luminescent Cell Viability Assay (Promega) was added, and the resultant mixture was stirred. This mixture was incubated at a dark place for 20 minutes. Using a microplate luminometer, luminescence at each well was measured, thereby calculating the cell viability for each concentration of the test substance. From the cell viability, the IC50 value of the test substance was determined.
as §1, §2

porcine tubulin [1] = biological target: T1, porcine tubulin (Sus scrofa, UniProt P02550+P02554); assay: Activity for inhibiting microtubule polymerization using porcine tubulins (2), microtubule polymerization rate; conditions: 60 minutes after assay initiation; relative to wells without compound; lower = stronger inhibition
T1 sequence (P02554 whole entry): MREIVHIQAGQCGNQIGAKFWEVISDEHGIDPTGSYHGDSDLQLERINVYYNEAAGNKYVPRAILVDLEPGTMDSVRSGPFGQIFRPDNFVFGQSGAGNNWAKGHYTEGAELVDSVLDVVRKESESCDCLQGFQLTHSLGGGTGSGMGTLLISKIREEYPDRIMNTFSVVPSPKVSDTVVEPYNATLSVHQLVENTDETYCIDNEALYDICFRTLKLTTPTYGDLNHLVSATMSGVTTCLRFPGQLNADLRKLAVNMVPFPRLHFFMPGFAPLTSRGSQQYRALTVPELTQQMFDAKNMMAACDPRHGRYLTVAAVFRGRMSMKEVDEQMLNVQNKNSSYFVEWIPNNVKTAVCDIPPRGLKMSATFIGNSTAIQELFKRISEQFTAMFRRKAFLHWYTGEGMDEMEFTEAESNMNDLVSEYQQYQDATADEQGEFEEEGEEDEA
T1 sequence (P02550 whole entry): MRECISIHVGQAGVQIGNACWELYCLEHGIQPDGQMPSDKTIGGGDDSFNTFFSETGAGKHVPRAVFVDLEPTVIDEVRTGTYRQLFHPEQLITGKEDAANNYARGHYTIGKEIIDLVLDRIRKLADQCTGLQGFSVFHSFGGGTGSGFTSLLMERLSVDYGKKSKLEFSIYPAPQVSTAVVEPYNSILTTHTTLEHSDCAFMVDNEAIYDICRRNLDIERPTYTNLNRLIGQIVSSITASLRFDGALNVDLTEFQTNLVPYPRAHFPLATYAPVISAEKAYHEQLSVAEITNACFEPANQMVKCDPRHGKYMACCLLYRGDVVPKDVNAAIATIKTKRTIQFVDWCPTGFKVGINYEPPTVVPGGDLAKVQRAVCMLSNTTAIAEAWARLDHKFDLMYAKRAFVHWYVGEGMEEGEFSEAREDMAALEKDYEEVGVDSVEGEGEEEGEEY

[2] = Pharmacokinetic evaluation test using mice; assay type: in vivo; conditions: for half-life: single intravenous administration
Procedure: A pharmacokinetic evaluation test was performed by single intravenous administration of Example 4 at a dose of 1.0 mg/kg to mice. A calibration curve was made from measurements of Example 4 with known concentration, and by interpolating measurements of each specimen to this, the amount of the compound contained in unit volume of each plasma was calculated using LC-MS. Pharmacokinetics of compound 14 and hemiasterlin were similarly evaluated.
(n.d. in the tables means less than the detection limit value (0.5 ng/mL).)

porcine tubulin [3] = biological target: T1, porcine tubulin; assay: Activity for inhibiting microtubule polymerization using porcine tubulins (1); assay type: biochemical; parameters: purchased Cytoskeleton Inc. BK006P; conditions: compound 0.91 μM; absorbance at 340 nm, 37° C.; FIG. 1 and FIG. 2
in vitro = conditions: PAMPA, pH 7.4
Procedure: By the parallel artificial membrane permeability assay (PAMPA), the membrane permeability of compounds of Examples was examined as follows: To the donor plate, System solution (pION inc.) and GIT Lipid-0 (pION inc.) were added in an amount of 200 μL and 4 μL for each well, respectively. To the acceptor plate, Acceptor Sink Buffer (pION inc.) was added in an amount of 200 μL. Both plates were superposed and incubated at 37° C. for 4 hours, and then, UVs in the solutions on the side of acceptor and on the side of donor were measured with an UV plate reader (190 to 500 nm). Compounds with poor UV absorption were measured by LC-MS. The permeability coefficient Pe (10^−6 cm/sec) of the drug was calculated by the following formula.

SU-DHL-1 cells = assay: Cellular toxicity test (1), CellTiter-Glo, SU-DHL-1; assay type: cell-based; conditions: Homo sapiens, 96 h, cultured 4 days, cell viability
Procedure: as §3, §1, §2

Q: With `CN[C@H](C(=O)N[C@H](C(=O)N(C)[C@H](/C=C(\C)C(=O)O)C(C)C)C(C)(C)C)C(C)(C)c1cn(C)c2ccccc12` [Hemiasterlin, hemiasterlin] as the molecule, how does the IC50 (SK-BR-3 cells) read?
A: 0.088 nM

Q: What about the IC50 (Karpas-299 cells) of the same molecule?
A: 0.032 nM

Q: And the “Microtubule polymerization rate (%)” value (porcine tubulin [1])?
A: 3%

Q: What about the half-life ([2]; mouse, plasma, 1 mg/kg) of the same molecule?
A: < 786 min

Q: What about the concentration at 0.5 hr ([2]; mouse, plasma, iv, 1 mg/kg, single intravenous 1.0 mg/kg, 0.5 hr, read-out: Blood concentration, mean value) of the same molecule?
A: 65 ng/mL

Q: And the concentration at 2 hr ([2]; mouse, plasma, iv, 1 mg/kg, single intravenous 1.0 mg/kg, 2 hr, read-out: Blood concentration, individual mice 1-3)?
A: 25.1 ng/mL

Q: What about the concentration at 2 hr ([2]; mouse, plasma, iv, 1 mg/kg, single intravenous 1.0 mg/kg, 2 hr, read-out: Blood concentration, mean value) of the same molecule?
A: 25.8 ng/mL

Q: What about the concentration at 6 hr ([2]; mouse, plasma, iv, 1 mg/kg, single intravenous 1.0 mg/kg, 6 hr, read-out: Blood concentration, individual mice 1-3) of the same molecule?
A: 18.9 ng/mL

Q: What about the concentration at 6 hr ([2]; mouse, plasma, iv, 1 mg/kg, single intravenous 1.0 mg/kg, 6 hr, read-out: Blood concentration, mean value) of the same molecule?
A: 22.4 ng/mL

Q: What about the concentration at 24 hr ([2]; mouse, plasma, iv, 1 mg/kg, single intravenous 1.0 mg/kg, 24 hr, read-out: Blood concentration, mean value) of the same molecule?
A: 8.3 ng/mL

Q: And the “Blood concentration, individual mice 1-3” value ([2]; single intravenous 1.0 mg/kg, 0.5 hr, 1 mg/kg)?
A: 54.5 ng/mL and 99.8 ng/mL and 40.6 ng/mL

Q: And the “Blood concentration, individual mice 1-3” value ([2]; single intravenous 1.0 mg/kg, 2 hr, 1 mg/kg)?
A: 22.2 ng/mL and 30.20 ng/mL

Q: What about the “Blood concentration, individual mice 1-3” value ([2]; single intravenous 1.0 mg/kg, 6 hr, 1 mg/kg) of the same molecule?
A: 18.2 ng/mL and 30.2 ng/mL

Q: What about the “Blood concentration, individual mice 1-3” value ([2]; single intravenous 1.0 mg/kg, 24 hr, 1 mg/kg) of the same molecule?
A: 2.4 ng/mL and 12.8 ng/mL and 9.5 ng/mL

Q: With `CCOC(=O)CC[C@@H](NC(=O)/C(C)=C/[C@H](C(C)C)N(C)C(=O)[C@@H](NC(=O)[C@@H](NC)C(C)(C)c1cn(C)c2ccccc12)C(C)(C)C)C(=O)OCC` [Example 9] as the molecule, how does the “activity for inhibiting microtubule polymerization” value (porcine tubulin [3]) read?
A: exhibited activities for inhibiting microtubule polymerization

Q: What does the source list for `CCOC(=O)[C@@H](CCC(=O)O)NC(=O)/C(C)=C/[C@H](C(C)C)N(C)C(=O)[C@@H](NC(=O)[C@@H](NC)C(C)(C)c1cn(C)c2ccccc12)C(C)(C)C` [Example 14]?
A: IC50 (SK-BR-3 cells): 1.03 nM; IC50 (Karpas-299 cells): 0.12 nM; Papp (in vitro): 4.5 ×10⁻⁶ cm/s; IC50 (SU-DHL-1 cells): 0.24 nM; activity for inhibiting microtubule polymerization (porcine tubulin [3]): exhibited activities for inhibiting microtubule polymerization; also recorded: exhibited polymerization inhibitory activity concentration-dependently; half-life ([2]; mouse, plasma, 1 mg/kg): < 30 min; Blood concentration of Example 14 ([2]; single intravenous administration of Example 14, 0.5 hr, animal 1): n.d. (less than the detection limit value (0.5 ng/mL)); Blood concentration of Example 14 ([2]; single intravenous administration of Example 14, 0.5 hr, animal 2): n.d. (less than the detection limit value (0.5 ng/mL)); Blood concentration of Example 14 ([2]; single intravenous administration of Example 14, 0.5 hr, animal 3): n.d. (less than the detection limit value (0.5 ng/mL)); Blood concentration of Example 14, mean ([2]; single intravenous administration of Example 14, 0.5 hr): n.d. (less than the detection limit value (0.5 ng/mL)); Blood concentration of Example 14 ([2]; single intravenous administration of Example 14, 2 hr, animal 1): n.d. (less than the detection limit value (0.5 ng/mL)); Blood concentration of Example 14 ([2]; single intravenous administration of Example 14, 2 hr, animal 2): n.d. (less than the detection limit value (0.5 ng/mL)); Blood concentration of Example 14 ([2]; single intravenous administration of Example 14, 2 hr, animal 3): n.d. (less than the detection limit value (0.5 ng/mL)); Blood concentration of Example 14, mean ([2]; single intravenous administration of Example 14, 2 hr): n.d. (less than the detection limit value (0.5 ng/mL)); Blood concentration of Example 14 ([2]; single intravenous administration of Example 14, 6 hr, animal 1): n.d. (less than the detection limit value (0.5 ng/mL)); Blood concentration of Example 14 ([2]; single intravenous administration of Example 14, 6 hr, animal 2): n.d. (less than the detection limit value (0.5 ng/mL)); Blood concentration of Example 14 ([2]; single intravenous administration of Example 14, 6 hr, animal 3): n.d. (less than the detection limit value (0.5 ng/mL)); Blood concentration of Example 14, mean ([2]; single intravenous administration of Example 14, 6 hr): n.d. (less than the detection limit value (0.5 ng/mL)); Blood concentration of Example 14 ([2]; single intravenous administration of Example 14, 24 hr, animal 1): n.d. (less than the detection limit value (0.5 ng/mL)); Blood concentration of Example 14 ([2]; single intravenous administration of Example 14, 24 hr, animal 2): n.d. (less than the detection limit value (0.5 ng/mL)); Blood concentration of Example 14 ([2]; single intravenous administration of Example 14, 24 hr, animal 3): n.d. (less than the detection limit value (0.5 ng/mL)); Blood concentration of Example 14, mean ([2]; single intravenous administration of Example 14, 24 hr): n.d. (less than the detection limit value (0.5 ng/mL))

Q: With `CN[C@H](C(=O)N[C@H](C(=O)N(C)[C@H](/C=C(\C)C(=O)N[C@@H](CC(=O)O)C(=O)O)C(C)C)C(C)(C)C)C(C)(C)c1cn(C)c2ccccc12` [Example 11] as the molecule, how does the IC50 (SK-BR-3 cells) read?
A: 157 nM

Q: And the IC50 (Karpas-299 cells)?
A: 220 nM

Q: And the IC50 (SU-DHL-1 cells)?
A: 158 nM

Q: What about the “Microtubule polymerization rate (%)” value (porcine tubulin [1]) of the same molecule?
A: 5%

Q: For `CN[C@H](C(=O)N[C@H](C(=O)N(C)[C@H](/C=C(\C)C(=O)N[C@@H](CS)C(=O)O)C(C)C)C(C)(C)C)C(C)(C)c1cn(C)c2ccccc12` [Example 23], which IC50 (SK-BR-3 cells) is on record?
A: 143 nM

Q: What about the IC50 (SU-DHL-1 cells) of the same molecule?
A: > 50 nM

Q: And the “activity for inhibiting microtubule polymerization” value (porcine tubulin [3])?
A: exhibited activities for inhibiting microtubule polymerization

Q: Which results are given for `CN[C@H](C(=O)N[C@H](C(=O)N(C)[C@H](/C=C(\C)C(=O)N[C@@H](CS)C(=O)OC)C(C)C)C(C)(C)C)C(C)(C)c1cn(C)c2ccccc12` [Example 22]?
A: IC50 (SK-BR-3 cells): 1.92 nM; IC50 (SU-DHL-1 cells): 1.22 nM
